Active and inactive are the calls of the source. No cut-off for these calls is given here.
Tests used:
[1] = biological target: T1, Tyrosinase (Agaricus bisporus) (UniProt O42713); assay: Potency index, ratio of IC50 for kojic acid to IC50 for test compound for inhibition of mushroom tyrosinase diphenolase activity
T1 sequence (whole entry): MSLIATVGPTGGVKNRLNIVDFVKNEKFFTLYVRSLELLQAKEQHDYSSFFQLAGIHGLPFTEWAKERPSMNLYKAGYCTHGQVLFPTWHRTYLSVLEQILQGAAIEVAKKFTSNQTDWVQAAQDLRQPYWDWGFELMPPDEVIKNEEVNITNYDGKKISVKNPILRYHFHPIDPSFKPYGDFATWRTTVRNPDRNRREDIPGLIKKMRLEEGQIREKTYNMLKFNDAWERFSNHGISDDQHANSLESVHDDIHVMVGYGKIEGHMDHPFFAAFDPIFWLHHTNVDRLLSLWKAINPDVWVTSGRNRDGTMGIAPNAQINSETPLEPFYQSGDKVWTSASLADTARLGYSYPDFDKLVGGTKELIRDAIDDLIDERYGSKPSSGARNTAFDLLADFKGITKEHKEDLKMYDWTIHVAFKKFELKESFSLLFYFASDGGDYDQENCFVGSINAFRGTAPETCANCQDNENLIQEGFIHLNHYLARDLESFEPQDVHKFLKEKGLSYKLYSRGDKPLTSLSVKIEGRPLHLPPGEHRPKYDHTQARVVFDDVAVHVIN

[2] = biological target: T1, Tyrosinase (Agaricus bisporus); assay: Reversible inhibition of mushroom tyrosinase diphenolase activity using L-DOPA as substrate at 0.25 to 2.0 uM
[3] = biological target: T1, Tyrosinase (Agaricus bisporus); assay: Competitive inhibition of mushroom tyrosinase diphenolase activity using L-DOPA as substrate at 1.25 to 20 uM by Lineweaver Burk plot analysis
[4] = biological target: T2, Tyrosinase (Agaricus bisporus, UniProt O42713)
T2 sequence (O42713 whole entry): T1 sequence (whole entry)

[5] = biological target: T2, Tyrosinase; remark: listed apart in the source
Description: Competitive inhibition of mushroom tyrosinase polyphenol oxidase activity using L-DOPA as substrate by Dixon plot analysis

[6] = biological target: T1, Tyrosinase (Agaricus bisporus); assay: Inhibition of mushroom tyrosinase diphenolase activity using L-DOPA as substrate

Ratio IC50 [1]	inhibition [2]	inhibition [3]	IC50 [4]	Ki [5]	inhibition [6]	Structure (SMILES)
2.23	Active	Active	12.3 µM	10.3 µM	Dose-dependent effect	O=C1/C(=C\c2ccc(O)cc2O)Cc2ccccc21
3.35	Active	Active	8.2 µM	8.7 µM	Dose-dependent effect	O=C1/C(=C\c2ccc(O)c(O)c2)Cc2ccccc21

— ChEMBL document CHEMBL3632489, “Inhibitory kinetics of novel 2,3-dihydro-1H-inden-1-one chalcone-like derivatives on mushroom tyrosinase” (Bioorg Med Chem Lett, 2015)
